“Also recorded” adds a separate entry of the source. Read-outs that look alike come from different tables or passages of the source.

For this experiment, the target named is T1, human wild-type (WT)-pendrin (Homo sapiens, UniProt O43511).
T1 construct: expressed in transfected cells
T1 sequence (O43511 1-780): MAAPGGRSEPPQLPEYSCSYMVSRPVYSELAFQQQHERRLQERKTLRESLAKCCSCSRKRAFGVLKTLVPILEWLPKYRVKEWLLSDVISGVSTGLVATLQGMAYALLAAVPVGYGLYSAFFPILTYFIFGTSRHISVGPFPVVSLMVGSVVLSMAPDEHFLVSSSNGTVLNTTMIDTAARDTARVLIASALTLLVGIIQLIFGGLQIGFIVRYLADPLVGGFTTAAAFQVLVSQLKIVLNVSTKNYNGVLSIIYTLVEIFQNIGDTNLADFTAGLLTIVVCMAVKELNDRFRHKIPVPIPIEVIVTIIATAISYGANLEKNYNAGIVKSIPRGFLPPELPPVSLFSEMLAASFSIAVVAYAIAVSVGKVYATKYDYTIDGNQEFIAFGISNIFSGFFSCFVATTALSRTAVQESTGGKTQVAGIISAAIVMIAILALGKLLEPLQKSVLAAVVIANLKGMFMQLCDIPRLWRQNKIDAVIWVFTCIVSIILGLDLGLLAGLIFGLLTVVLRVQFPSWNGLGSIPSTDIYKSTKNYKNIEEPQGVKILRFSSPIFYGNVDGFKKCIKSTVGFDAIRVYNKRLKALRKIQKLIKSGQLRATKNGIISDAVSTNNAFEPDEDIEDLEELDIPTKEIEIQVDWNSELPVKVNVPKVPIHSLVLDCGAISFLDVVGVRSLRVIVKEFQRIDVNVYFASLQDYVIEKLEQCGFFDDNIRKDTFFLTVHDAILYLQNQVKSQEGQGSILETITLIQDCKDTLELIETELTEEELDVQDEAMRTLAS
The experiment in a line: Pendrin-mediated Cl^−/I^− exchange activity, YFP fluorescence in CHO-K1 cells. The class given is cell-based. The conditions noted are these: for inhibition at 30 µM: CHO-K1, 30 μM, read-out: Pendrin inhibitory activity at 30 μM (%); for inhibition of pendrin Cl^−/I^− exchange activity: CHO-K1 cells, pretreated 10 minutes.

Where [1] appears, read: compounds showing pendrin inhibitory activity of 50% or more at 30 μM, read-out: IC50.

`CC(C)(C)c1ccc(C2=NC(=Cc3ccc[nH]3)C(=O)O2)cc1` [F10, 4-((1H-pyrrol-2-yl)methylene)-2-(4-(tert-butyl)phenyl)oxazol-5 (4H)-one]: the inhibition at 30 µM was found to be 100% and the “inhibition of pendrin Cl^−/I^− exchange activity” value was “strongly inhibit”. Where the note is “FIG. 4(b), read-out: inhibitory effect on the Cl—/I— exchange activity: IC50”, the IC50 is roughly 80 nM. For the same compound, the IC50 under setting [1] is 80 ± 20 nM.

On to `CC(C)(C)c1ccc(C2=NC(=Cc3cccs3)C(=O)O2)cc1` [F56, 2-(4-(tert-butyl)phenyl)-4-(thiophen-2-ylmethylene)oxazol-5(4H)-one], for which the inhibition at 30 µM stood at 84.7% and the “inhibition of pendrin Cl^−/I^− exchange activity” value is given as “significantly inhibited; also recorded: strongly inhibited”. Also, the IC50 (FIG. 4(a), read-out: 50% inhibition of Cl^−/I^− exchange activity) was roughly 3000 nM. The IC50 under setting [1] is 3300 ± 640 nM.

For the origin of these results see patent US12691101B2, “Compound and method for preventing or treating of respiratory diseases comprising the same as an active ingredient” (YONSEI UNIVERSITY, UNIVERSITY - INDUSTRY FOUNDATION (UIF), priority 2019, dated 2026).
